In this test the target is T1, nanoKAZ luciferase (Oplophorus gracilirostris, UniProt Q9GV45, A31E/A60N/A81I/F95D/I117V/K70R/L54V/L99Q/M102K/N193R/P142E/Q151K/Q38R/Q45L/V71I/Y165I).
T1 construct: luciferase catalytic domain (nanoKAZ, 19 kDa) from the Oplophorus-derived luciferase; host or cells: cell-free: 1-Step Human Coupled IVT Kit, pT7CFE1-based vector
Briefly: In vitro bioluminescence screening of imidazo[1,2-a]pyrazin-3(7H)-ones with nanoKAZ expressed in vitro (96-well luminometer, 2 h kinetic). It counts as biochemical. The settings on record: furimazine = 1. The procedure:
General protocol for the generation of solutions of imidazo[1,2-a]pyrazin-3(7H)-one Q by acidic hydrolysis of imidazo[1,2-a]pyrazin-3-yl acetate derivatives P. The considered acetate P (1 mg) was dissolved in DMSO (0.2 mL) and then diluted by adding a solution of acidic ethanol (0.3 ml) made from the addition of 37% hydrochloric acid (100 μl) on 100% ethanol (12 mL). This 0.5 mL solution was incubated at 50° C. for 2 hours to give a stock solution which was then stored at −80° C. […] Nota: these conditions are only adapted to the hydrolysis of the protecting group (as defined above) of the oxygen on position 2 of the imidazo[1,2-a]pyrazine ring system and not to the hydrolysis of any additional acetyl groups eventually present elsewhere on the substrate of this reaction.
The representative bioluminescence curves shown in the FIG. 2 provided an assessment for furimazine (Q-1), 8-benzyl-2-(furan-2-ylmethyl)-6-(4-hydroxyphenyl)imidazo[1,2-a]pyrazin-3 (7/1)-one (Q-80), 8-(2-fluorobenzyl)-2-(furan-2-ylmethyl)-6-phenylimidazo[1,2-a]pyrazin-3(7H)-one (Q-84), and 8-(2-fluorobenzyl)-2-((5-methylfuran-2-yl)methyl)-6-phenylimidazo[1,2-a]pyrazin-3(7H)-one (Q-85) was obtained using a luciferase expressed in vitro as described in the following. The nanoKAZ DNA template was cloned into Thermo Scientific pT7CFE1-based vector and nanoKAZ was expressed using ThermoFisher Scientific 1-Step Human Coupled IVT Kit—DNA (ref. 88881) according to the manufacturer instructions. The resulting reaction mix was diluted 400 times in buffer (DPBS (Gibco)+0.1% (v/v) Tween 20) and conserved at −80° C. The screening of the imidazo[1,2-a]pyrazin-3(7H)-ones was performed in 96 well plates using 50 μL/well of a 1/20 dilution in DPBS (Gibco)+0.1% (v/v) Tween 20 of the nanoKAZ solution.
To illustrate the bioluminescence properties improvement achieved for many of the imidazo[1,2-a]pyrazin-3(7H)-ones described here, four values are provided in Table 1: maximum intensity (V1), signal half-life (V2), area under the curve for ten minutes (V3), and area under the curve for two hours (V4), normalized using furimazine (Q-1) as a reference.
The bioluminescence properties of the tested compounds are considered to be improved when at least one of the values V1-V4 is above 1, and when none of the V1-V4 values is 0.05 or below.
By following the hydrolysis protocol described above, the following imidazo[1,2-a]pyrazin-3(7H)-ones luciferins Q were made in situ from the corresponding O-protected imidazo[1,2-a]pyrazines P and evaluated for their bioluminescence properties (maximum intensity (V1), signal half-life (V2), area under the curve for […], normalized using furimazine (Q-1) as a reference): […]

Setting [1] is: second table, luciferins made in situ from O-protected P.

The record followed here is US12612411B1, “Imidazopyrazine derivatives, process for preparation thereof, and their uses as luciferins” (INSTITUT PASTEUR, priority 2017, dated 2026).

SMILES strings stand for the structures.

T1 sequence (Q9GV45 other isoform, or with tags, fused parts or gaps with the stated changes): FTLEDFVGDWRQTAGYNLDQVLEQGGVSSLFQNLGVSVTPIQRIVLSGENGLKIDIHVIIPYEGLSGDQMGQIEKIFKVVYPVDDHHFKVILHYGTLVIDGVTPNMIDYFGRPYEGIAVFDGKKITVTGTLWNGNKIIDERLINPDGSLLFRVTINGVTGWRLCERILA

For the compound `O=c1c(Cc2ccccc2)nc2c(Cc3cccc(F)c3)[nH]c(-c3ccccc3)cn1-2` [Q-73, 2-benzyl-8-(3-fluorobenzyl)-6-phenylimidazo[1,2-a]pyrazin-3(7H)-one], under “Table 1”, the “V1: maximum intensity, normalized using furimazine (Q-1) as a reference” value (“V1: maximum intensity, normalized” below) was 1.12; the “V3: area under the curve for ten minutes, normalized using furimazine (Q-1) as a reference” value came to 1.19; the “V4: area under the curve for two hours, normalized using furimazine (Q-1) as a reference” value came to 0.92.

For the compound `O=c1c(Cc2ccccc2)nc2c(Cc3ccccc3)[nH]c(-c3ccc(O)cc3)cn1-2` [Q-75, 2,8-dibenzyl-6-(4-hydroxyphenyl)imidazo[1,2-a]pyrazin-3(7H)-one, reference compound], where the note is “Table 1”, the “V1: maximum intensity, normalized” value is recorded as 2.03; the “V3: area under the curve for ten minutes, normalized using furimazine (Q-1) as a reference” value was 0.45; the “V4: area under the curve for two hours, normalized using furimazine (Q-1) as a reference” value was 0.11.

In the case of `O=c1c(Cc2ccco2)nc2c(Cc3ccccc3)[nH]c(-c3ccc(O)cc3)cn1-2` [Q-80, 8-benzyl-2-(furan-2-ylmethyl)-6-(4-hydroxyphenyl)imidazo[1,2-a]pyrazin-3(7H)-one, reference compound], under “Table 1”, the “V1: maximum intensity, normalized” value came out at 3.06; the “V3: area under the curve for ten minutes, normalized using furimazine (Q-1) as a reference” value is 0.79; the “V4: area under the curve for two hours, normalized using furimazine (Q-1) as a reference” value came to 0.14.

With `O=c1c(Cc2ccco2)nc2c(Cc3cccc(F)c3)[nH]c(-c3ccccc3)cn1-2` [Q-81, 8-(3-fluorobenzyl)-2-(furan-2-ylmethyl)-6-phenylimidazo[1,2-a]pyrazin-3(7H)-one], for the setting “Table 1”, the “V1: maximum intensity, normalized” value came to 0.82; the “V3: area under the curve for ten minutes, normalized using furimazine (Q-1) as a reference” value turned out to be 0.92; the “V4: area under the curve for two hours, normalized using furimazine (Q-1) as a reference” value stood at 1.31.

On to `Cc1cccc(Cc2nc3c(Cc4ccccc4F)[nH]c(-c4ccccc4)cn-3c2=O)c1` [Q-82, 8-(2-fluorobenzyl)-2-(3-methylbenzyl)-6-phenylimidazo[1,2-a]pyrazin-3(7H)-one], for which, for the setting “Table 1”, the “V1: maximum intensity, normalized” value is recorded as 1.36; the “V3: area under the curve for ten minutes, normalized using furimazine (Q-1) as a reference” value came to 1.38; the “V4: area under the curve for two hours, normalized using furimazine (Q-1) as a reference” value was 0.84.

On to `COc1cccc(Cc2nc3c(Cc4ccccc4F)[nH]c(-c4ccccc4)cn-3c2=O)c1` [Q-83, 8-(2-fluorobenzyl)-2-(3-methoxybenzyl)-6-phenylimidazo[1,2-a]pyrazin-3(7H)-one], for which, for the setting “Table 1”, the “V1: maximum intensity, normalized” value worked out at 1.46; the “V3: area under the curve for ten minutes, normalized using furimazine (Q-1) as a reference” value is given as 1.49; the “V4: area under the curve for two hours, normalized using furimazine (Q-1) as a reference” value turned out to be 1.12.

For `O=c1c(Cc2ccco2)nc2c(Cc3ccccc3F)[nH]c(-c3ccccc3)cn1-2` [Q-84, 8-(2-fluorobenzyl)-2-(furan-2-ylmethyl)-6-phenylimidazo[1,2-a]pyrazin-3(7H)-one], where the note is “Table 1”, the “V1: maximum intensity, normalized” value was found to be 0.84; the “V3: area under the curve for ten minutes, normalized using furimazine (Q-1) as a reference” value came to 0.91; the “V4: area under the curve for two hours, normalized using furimazine (Q-1) as a reference” value is given as 1.18.

For the compound `Cc1ccc(Cc2nc3c(Cc4ccccc4F)[nH]c(-c4ccccc4)cn-3c2=O)o1` [Q-85, 8-(2-fluorobenzyl)-2-((5-methylfuran-2-yl)methyl)-6-phenylimidazo[1,2-a]pyrazin-3(7H)-one], where the note is “Table 1”, the “V1: maximum intensity, normalized” value was found to be 2.3; the “V3: area under the curve for ten minutes, normalized using furimazine (Q-1) as a reference” value worked out at 2.4; the “V4: area under the curve for two hours, normalized using furimazine (Q-1) as a reference” value was 1.81.

Consider `CCc1ccc(Cc2nc3c(Cc4ccccc4F)[nH]c(-c4ccccc4)cn-3c2=O)o1` [Q-96, 2-((5-ethylfuran-2-yl)methyl)-8-(2-fluorobenzyl)-6-phenylimidazo[1,2-a]pyrazin-3(7H)-one], for which, under “Table 1”, the “V1: maximum intensity, normalized” value is given as 2.51; the “V3: area under the curve for ten minutes, normalized using furimazine (Q-1) as a reference” value was 2.68; the “V4: area under the curve for two hours, normalized using furimazine (Q-1) as a reference” value amounted to 1.98.

On to `Cc1ccc(Cc2nc3c(Cc4cccc(F)c4)[nH]c(-c4ccccc4)cn-3c2=O)o1` [Q-97, 8-(3-fluorobenzyl)-2-((5-methylfuran-2-yl)methyl)-6-phenylimidazo[1,2-a]pyrazin-3(7H)-one], for which, under “Table 1”, the “V1: maximum intensity, normalized” value amounted to 2.04; the “V3: area under the curve for ten minutes, normalized using furimazine (Q-1) as a reference” value is reported as 2.20; the “V4: area under the curve for two hours, normalized using furimazine (Q-1) as a reference” value is 2.04.

For the compound `Cc1ccc(Cc2nc3c(Cc4ccccc4Cl)[nH]c(-c4ccccc4)cn-3c2=O)o1` [Q-98, 8-(2-chlorobenzyl)-2-((5-methylfuran-2-yl)methyl)-6-phenylimidazo[1,2-a]pyrazin-3(7H)-one], under “Table 1”, the “V1: maximum intensity, normalized” value worked out at 1.18; the “V3: area under the curve for ten minutes, normalized using furimazine (Q-1) as a reference” value is on record as 1.28; the “V4: area under the curve for two hours, normalized using furimazine (Q-1) as a reference” value is on record as 1.20.

Regarding `CCc1ccc(Cc2nc3c(Cc4cccc(F)c4)[nH]c(-c4ccccc4)cn-3c2=O)o1` [Q-99, 2-((5-ethylfuran-2-yl)methyl)-8-(3-fluorobenzyl)-6-phenylimidazo[1,2-a]pyrazin-3(7H)-one], for the setting “Table 1”, the “V1: maximum intensity, normalized” value is 1.99; the “V3: area under the curve for ten minutes, normalized using furimazine (Q-1) as a reference” value came out at 2.13; the “V4: area under the curve for two hours, normalized using furimazine (Q-1) as a reference” value came out at 2.08.

For the compound `Cc1cccc(Cc2nc3c(Cc4cccc(F)c4)[nH]c(-c4ccccc4)cn-3c2=O)c1` [Q-100, 8-(3-fluorobenzyl)-2-(3-methylbenzyl)-6-phenylimidazo[1,2-a]pyrazin-3(7H)-one], under “Table 1”, the “V1: maximum intensity, normalized” value is recorded as 1.25; the “V3: area under the curve for ten minutes, normalized using furimazine (Q-1) as a reference” value worked out at 1.33; the “V4: area under the curve for two hours, normalized using furimazine (Q-1) as a reference” value was found to be 1.04.

As for `Cc1ccc(Cc2nc3c(Cc4cccc(F)c4)[nH]c(-c4ccccc4F)cn-3c2=O)o1` [Q-105, 8-(3-fluorobenzyl)-6-(2-fluorophenyl)-2-((5-methylfuran-2-yl)methyl)imidazo[1,2-a]pyrazin-3(7H)-one], for the setting “second table”, the “V3: area under the curve for 2 hours, normalized using furimazine (Q-1) as a reference” value came out at 2.01 and the “V4: area under the curve for ten minutes, normalized using furimazine (Q-1) as a reference” value is reported as 1.72. For the same compound, the “V1: maximum intensity, normalized” value under setting [1] is on record as 2.04.

Turning to `O=c1c(Cc2ccco2)nc2c(Cc3cccc(F)c3F)[nH]c(-c3ccccc3)cn1-2` [Q-107, 8-(2,3-difluorobenzyl)-2-(furan-2-ylmethyl)-6-phenylimidazo[1,2-a]pyrazin-3(7H)-one], for the setting “second table”, the “V3: area under the curve for 2 hours, normalized using furimazine (Q-1) as a reference” value came out at 1.04 and the “V4: area under the curve for ten minutes, normalized using furimazine (Q-1) as a reference” value is recorded as 1.27. Moreover, the “V1: maximum intensity, normalized” value under setting [1] worked out at 1.03.

Take `Cc1ccc(Cc2nc3c(Cc4cccc(F)c4F)[nH]c(-c4ccccc4)cn-3c2=O)o1` [Q-108, 8-(2,3-difluorobenzyl)-2-((5-methylfuran-2-yl)methyl)-6-phenylimidazo[1,2-a]pyrazin-3(7H)-one]: where the note is “second table”, the “V3: area under the curve for 2 hours, normalized using furimazine (Q-1) as a reference” value is recorded as 3.09 and the “V4: area under the curve for ten minutes, normalized using furimazine (Q-1) as a reference” value came out at 2.1. Also, the “V1: maximum intensity, normalized” value under setting [1] was determined as 3.15.

On to `O=c1c(Cc2ccccc2)nc2c(Cc3cccc(F)c3F)[nH]c(-c3ccccc3)cn1-2` [Q-117, 2-benzyl-8-(2,3-difluorobenzyl)-6-phenylimidazo[1,2-a]pyrazin-3(7H)-one], for which, for the setting “second table”, the “V3: area under the curve for 2 hours, normalized using furimazine (Q-1) as a reference” value worked out at 1.94 and the “V4: area under the curve for ten minutes, normalized using furimazine (Q-1) as a reference” value came to 0.7. The “V1: maximum intensity, normalized” value under setting [1] is 2.31.

As to `Cc1ccc(Cc2nc3c(Cc4c(F)cccc4F)[nH]c(-c4ccccc4)cn-3c2=O)o1` [Q-121, 8-(2,6-difluorobenzyl)-2-((5-methylfuran-2-yl)methyl)-6-phenylimidazo[1,2-a]pyrazin-3(7H)-one], under “second table”, the “V3: area under the curve for 2 hours, normalized using furimazine (Q-1) as a reference” value worked out at 1.43 and the “V4: area under the curve for ten minutes, normalized using furimazine (Q-1) as a reference” value is recorded as 1.37. Besides, the “V1: maximum intensity, normalized” value under setting [1] came out at 1.41.
